According to patent publication US10508104B2, “6-hydroxy-5-(phenyl/heteroarylsulfonyl)pyrimidin-4(1H)-one as APJ agonists” (Bristol-Myers Squibb Company, priority 2016, dated 2019):

What follows are compounds tested against human APJ receptor (Homo sapiens (Human), UniProt P35414) (assay: Intracellular cAMP accumulation assay (APJ hcAMP, HTRF)). Conditions: HEK293 cells stably expressing human APJ receptor; inhibition of forskolin-mediated cAMP production; read-out: Human APJ cAMP EC50 Potency range.
Assay type: cell-based
Method in brief: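 HEK293 cells stably expressing human APJ, 5,000 per well, incubated 30 min at rt with compound, […] and 2 μM forskolin. cAMP measured by HTRF against a cAMP standard curve as inhibition of forskolin-driven production. EC50 from variable-slope sigmoidal fit.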

Chain of human APJ receptor (P35414 whole entry): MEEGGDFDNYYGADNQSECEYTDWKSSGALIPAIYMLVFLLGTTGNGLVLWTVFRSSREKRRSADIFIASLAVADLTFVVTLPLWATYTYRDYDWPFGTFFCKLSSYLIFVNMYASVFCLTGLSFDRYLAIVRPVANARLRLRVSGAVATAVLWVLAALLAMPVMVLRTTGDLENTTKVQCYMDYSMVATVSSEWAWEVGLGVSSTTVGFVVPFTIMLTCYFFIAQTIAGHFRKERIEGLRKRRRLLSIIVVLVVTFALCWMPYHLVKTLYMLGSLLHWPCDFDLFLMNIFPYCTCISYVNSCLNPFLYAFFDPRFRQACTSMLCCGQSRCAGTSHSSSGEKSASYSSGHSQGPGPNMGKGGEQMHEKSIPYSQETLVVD

SMILES | EC50
CCCCc1nc(=O)c(S(=O)(=O)c2ccc(-c3cnc(OC)nc3OC)cc2)c(O)n1[C@@H](CC)c1cccc(C#N)c1 [Example 508, 3-[(1S)-1-{2-butyl-5-[4-(2,4-dimethoxypyrimidin-5-yl)benzenesulfonyl]-6-hydroxy-4-oxo-1,4-dihydropyrimidin-1-yl}propyl]benzonitrile] | 0.01 to 10 nM
CCCCc1nc(=O)c(S(=O)(=O)c2ccc(-c3ccccc3C(=O)N(C)C)cc2)c(O)n1[C@@H](CC)c1cccc(C#N)c1 [Example 513, 4′-({2-butyl-1-[(1S)-1-(3-cyanophenyl)propyl]-6-hydroxy-4-oxo-1,4-dihydropyrimidin-5-yl}sulfonyl)-N,N-dimethyl-[1,1′-biphenyl]-2-carboxamide] | 0.01 to 10 nM
CCCCc1nc(=O)c(S(=O)(=O)c2ccc(-c3ccc(F)cc3C(N)=O)cc2)c(O)n1[C@@H](CC)c1ccc(C#N)c(F)c1 [Example 514, 4′-({2-butyl-1-[(1S)-1-(4-cyano-3-fluorophenyl)propyl]-6-hydroxy-4-oxo-1,4-dihydropyrimidin-5-yl}sulfonyl)-4-fluoro-[1,1′-biphenyl]-2-carboxamide] | 0.01 to 10 nM
CCCCc1nc(=O)c(S(=O)(=O)c2ccc(-c3ccccc3C(=O)NC)cc2)c(O)n1[C@@H](CC)c1ccc(C#N)c(F)c1 [Example 520, 4′-({2-butyl-1-[(1S)-1-(4-cyano-3-fluorophenyl)propyl]-6-hydroxy-4-oxo-1,4-dihydropyrimidin-5-yl}sulfonyl)-N-methyl-[1,1′-biphenyl]-2-carboxamide] | 0.01 to 10 nM
CCCCc1nc(=O)c(S(=O)(=O)c2ccc(-c3ccccc3C(=O)N(C)C)cc2)c(O)n1[C@@H](CC)c1ccc(C#N)c(F)c1 [Example 521, 4′-({2-butyl-1-[(1S)-1-(4-cyano-3-fluorophenyl)propyl]-6-hydroxy-4-oxo-1,4-dihydropyrimidin-5-yl}sulfonyl)-N,N-dimethyl-[1,1′-biphenyl]-2-carboxamide] | 0.01 to 10 nM
CCCCc1nc(=O)c(S(=O)(=O)c2ccc(-c3ccccc3C(=O)NC3CC3)cc2)c(O)n1[C@@H](CC)c1cccc(C#N)c1 [Example 522, 4′-({2-butyl-1-[(1S)-1-(3-cyanophenyl)propyl]-6-hydroxy-4-oxo-1,4-dihydropyrimidin-5-yl}sulfonyl)-N-cyclopropyl-[1,1′-biphenyl]-2-carboxamide] | 0.01 to 10 nM
CCCCc1nc(=O)c(S(=O)(=O)c2ccc(-c3cccc(C(=O)NC)c3)cc2)c(O)n1[C@@H](CC)c1cccc(C#N)c1 [Example 523, 4′-({2-butyl-1-[(1S)-1-(3-cyanophenyl)propyl]-6-hydroxy-4-oxo-1,4-dihydropyrimidin-5-yl}sulfonyl)-N-methyl-[1,1′-biphenyl]-3-carboxamide] | 0.01 to 10 nM
CCCCc1nc(=O)c(S(=O)(=O)c2ccc(-c3cccc4c3C(=O)NC4)cc2)c(O)n1[C@H](c1cccc(C#N)c1)C1CC1 [Example 524, 3-[(S)-{2-butyl-6-hydroxy-4-oxo-5-[4-(3-oxo-2,3-dihydro-1H-isoindol-4-yl)benzenesulfonyl]-1,4-dihydropyrimidin-1-yl}(cyclopropyl)methyl] benzonitrile] | 0.01 to 10 nM
CCCCc1nc(=O)c(S(=O)(=O)c2ccc(-c3ccc(C(N)=O)cc3F)cc2)c(O)n1[C@@H](CC)c1cccc(C#N)c1 [Example 525, 4′-({2-butyl-1-[(1S)-1-(3-cyanophenyl)propyl]-6-hydroxy-4-oxo-1,4-dihydropyrimidin-5-yl}sulfonyl)-2-fluoro-[1,1′-biphenyl]-4-carboxamide] | 0.01 to 10 nM
CCCCc1nc(=O)c(S(=O)(=O)c2ccc(-c3cccc4c3C(=O)NC4)cc2)c(O)n1[C@@H](CC)c1cccc(C#N)c1 [Example 529, 3-[(1S)-1-{2-butyl-6-hydroxy-4-oxo-5-[4-(3-oxo-2,3-dihydro-1H-isoindol-4-yl)benzenesulfonyl]-1,4-dihydropyrimidin-1-yl}propyl]benzonitrile] | 0.01 to 10 nM
CCCCc1nc(=O)c(S(=O)(=O)c2ccc(-c3ccccc3C(=O)NC)cc2)c(O)n1[C@H](c1cccc(C#N)c1)C1CC1 [Example 530, 4′-({2-butyl-1-[(S)-(3-cyanophenyl)(cyclopropyl)methyl]-6-hydroxy-4-oxo-1,4-dihydropyrimidin-5-yl}sulfonyl)-N-methyl-[1,1′-biphenyl]-2-carboxamide] | 0.01 to 10 nM
CCCCc1nc(=O)c(S(=O)(=O)c2ccc(-c3cccc(C(C)(C)O)c3)cc2)c(O)n1[C@@H](CC)c1cccc(C#N)c1 [Example 531, 3-[(1S)-1-(2-buty1-6-hydroxy-5-{[3′-(2-hydroxypropan-2-yl)-[1,1′-biphenyl]-4-yl]sulfonyl}-4-oxo-1,4-dihydropyrimidin-1-yl)propyl]benzonitrile] | 10 to 100 nM
CCCCc1nc(=O)c(S(=O)(=O)c2ccc(-c3ccc(C(C)(C)O)cc3)cc2)c(O)n1[C@@H](CC)c1cccc(C#N)c1 [Example 532, 3-[(1S)-1-(2-butyl-6-hydroxy-5-{[4′-(2-hydroxypropan-2-yl)-[1,1′-biphenyl]-4-yl]sulfonyl}-4-oxo-1,4-dihydropyrimidin-1-yl)propyl]benzonitrile] | 10 to 100 nM
CCCCc1nc(=O)c(S(=O)(=O)c2ccc(-c3ccccc3C(=O)NC3CC3)cc2)c(O)n1[C@H](c1cccc(C#N)c1)C1CC1 [Example 533, 4′-({2-butyl-1-[(S)-(3-cyanophenyl)(cyclopropyl)methyl]-6-hydroxy-4-oxo-1,4-dihydropyrimidin-5-yl}sulfonyl)-N-cyclopropyl-[1,1′-biphenyl]-2-carboxamide] | 0.01 to 10 nM

Results, then the compound that gave them:

EC50 | SMILES
0.01 to 10 nM | CCCCc1nc(=O)c(S(=O)(=O)c2ccc(-c3cccnc3C(N)=O)cc2)c(O)n1[C@@H](CC)c1cccc(C#N)c1 [Example 509, 3-[4-({2-butyl-1-[(1S)-1-(3-cyanophenyl)propyl]-6-hydroxy-4-oxo-1,4-dihydropyrimidin-5-yl}sulfonyl)phenyl] pyridine-2-carboxamide]
0.01 to 10 nM | CCCCc1nc(=O)c(S(=O)(=O)c2ccc(-c3ccnc4[nH]ccc34)cc2)c(O)n1[C@@H](CC)c1cccc(C#N)c1 [Example 510, 3-[(1S)-1-[2-buty1-6-hydroxy-4-oxo-5-(4-{1H-pyrrolo[2,3-b]pyridin-4-yl}benzenesulfonyl)-1,4-dihydropyrimidin-1-yl]propyl]benzonitrile]
0.01 to 10 nM | CCCCc1nc(=O)c(S(=O)(=O)c2ccc(-c3ccccc3F)cc2)c(O)n1[C@@H](CC)c1cccc(C#N)c1 [Example 511, 3-[(1S)-1-[2-butyl-5-({2′-fluoro-[1,1′-biphenyl]-4-yl}sulfonyl)-6-hydroxy-4-oxo-1,4-dihydropyrimidin-1-yl]propyl]benzonitrile]
0.01 to 10 nM | CCCCc1nc(=O)c(S(=O)(=O)c2ccc(-c3ccncc3F)cc2)c(O)n1[C@@H](CC)c1cccc(C#N)c1 [Example 512, 3-[(1S)-1-{2-butyl-5-[4-(3-fluoropyridin-4-yI)benzenesulfonyl]-6-hydroxy-4-oxo-1,4-dihydropyrimidin-1-yl}propyl]benzonitrile]
0.01 to 10 nM | CCCCc1nc(=O)c(S(=O)(=O)c2ccc(-c3cccnc3C)cc2)c(O)n1[C@@H](CC)c1ccc(C#N)c(F)c1 [Example 515, 4-[(1S)-1-{2-butyl-6-hydroxy-5-[4-(2-methylpyridin-3-yl)benzenesulfonyl]-4-oxo-1,4-dihydropyrimidin-1-yl}propyl]-2-fluorobenzonitrile]
0.01 to 10 nM | CCCCc1nc(=O)c(S(=O)(=O)c2ccc(-c3ccncc3C)cc2)c(O)n1[C@@H](CC)c1ccc(C#N)c(F)c1 [Example 516, 4-[(1S)-1-{2-butyl-6-hydroxy-5-[4-(3-methylpyridin-4-yl)benzenesulfonyl]-4-oxo-1,4-dihydropyrimidin-1-yl}propyl]-2-fluorobenzonitrile]
0.01 to 10 nM | CCCCc1nc(=O)c(S(=O)(=O)c2ccc(-c3ccnc(F)c3C)cc2)c(O)n1[C@@H](CC)c1ccc(C#N)c(F)c1 [Example 517, 4-[(1S)-1-{2-butyl-5-[4-(2-fluoro-3-methylpyridin-4-yl)benzenesulfonyl]-6-hydroxy-4-oxo-1,4-dihydropyrimidin-1-yl}propyl]-2-fluorobenzonitrile]
0.01 to 10 nM | CCCCc1nc(=O)c(S(=O)(=O)c2ccc(-c3cccn(C)c3=O)cc2)c(O)n1[C@@H](CC)c1ccc(C#N)c(F)c1 [Example 518, 4-[(1S)-1-{2-butyl-6-hydroxy-5-[4-(1-methyl-2-oxo-1,2-dihydropyridin-3-yl)benzenesulfonyl]-4-oxo-1,4-dihydropyrimidin-1-yl}propyl]-2-fluorobenzonitrile]
0.01 to 10 nM | CCCCc1nc(=O)c(S(=O)(=O)c2ccc(-c3ccc(F)nc3C)cc2)c(O)n1[C@@H](CC)c1ccc(C#N)c(F)c1 [Example 519, 4-[(1S)-1-{2-butyl-5-[4-(6-fluoro-2-methylpyridin-3-yl)benzenesulfonyl]-6-hydroxy-4-oxo-1,4-dihydropyrimidin-1-yl}propyl]-2-fluorobenzonitrile]
0.01 to 10 nM | CCCCc1nc(=O)c(S(=O)(=O)c2ccc(-c3ccnc(F)c3C)cc2)c(O)n1[C@@H](CC)c1ccnc(C#N)c1 [Example 526, 4-[(1S)-1-{2-butyl-5-[4-(2-fluoro-3-methylpyridin-4-yl)benzenesulfonyl]-6-hydroxy-4-oxo-1,4-dihydropyrimidin-1-yl}propyl]pyridine-2-carbonitrile]
0.01 to 10 nM | CCCCc1nc(=O)c(S(=O)(=O)c2ccc(-c3ccncc3C)cc2)c(O)n1[C@@H](CC)C1CCOCC1 [Example 527, 2-butyl-6-hydroxy-5-[4-(3-methylpyridin-4-yl)benzenesulfonyl]-1-[(1S)-1-(oxan-4-yl)propyl]-1,4-dihydropyrimidin-4-one]
0.01 to 10 nM | CCCCc1nc(=O)c(S(=O)(=O)c2ccc(-c3ccnc(F)c3C)cc2)c(O)n1[C@@H](CC)C1CCOCC1 [Example 528, 2-butyl-5-[4-(2-fluoro-3-methylpyridin-4-yl)benzenesulfonyl]-6-hydroxy-1-[(1S)-1-(oxan-4-yl)propyl]-1,4-dihydropyrimidin-4-one]
